Values quoted from earlier work in patent US20250127711A1, “COMPOSITION AND METHOD FOR TREATING FUNGAL SKIN CONDITIONS AND INFLAMMATION” (CMPD Licensing, LLC, priority 2016, published 2025).

Tests used:
[1] = test system: mineralocorticoid activity
[2] = test system: glucocorticoid activity

solubility in ethanol (ethanol)	solubility in water (water)	Compound	mineralocorticoid activity [1]	glucocorticoid activity [2]
		C[C@H]1C[C@H]2[C@@H]3CCC4=CC(=O)C=C[C@]4(C)[C@@]3(F)[C@@H](O)C[C@]2(C)[C@@]1(O)C(=O)CCl [Clobetasol]	slight degree	high degree
slightly soluble	practically insoluble	CC(=O)OCC(=O)[C@@]12OC(C)(C)O[C@@H]1C[C@H]1[C@@H]3C[C@H](F)C4=CC(=O)C=C[C@]4(C)[C@@]3(F)[C@@H](O)C[C@@]12C [Fluocinonide]		
